Measurements as given in patent publication US20230406885A1, “CYCLIC PEPTIDES FOR TRAPPING INTERLEUKIN-1 BETA” (MERCK SHARP & DOHME LLC, priority 2022, published 2023).
*1 amine or outer side, *2 acyl side, *3 side chain or, on linkers, in order; H or OH if unused. Where a SMILES comes first, the peptide text is derived from it. [ ]: non-standard residue; d: D form. Trp(4-Cl)(βS-Me) = C[C@@H](c1c[nH]c2cccc(Cl)c12)[C@H](N)C(=O)O; Trp(βS-Me,4-F) = C[C@@H](c1c[nH]c2cccc(F)c12)[C@H](N)C(=O)O; Bip(4'-COOH) = N[C@@H](Cc1ccc(-c2ccc(C(=O)O)cc2)cc1)C(=O)O; X6 = O=C(O)C12CC(c3ccc(C[C@H](N[*:1])C(=O)[*:2])cc3)(C1)C2; X1 = CC(=O)N1CCN(c2ccc(C[C@H](N[*:1])C(=O)[*:2])cn2)CC1; 1Nal(3S-Me) = C[C@@H](c1cccc2ccccc12)[C@H](N)C(=O)O; X12 = CC(=O)NCCOc1ccc(C[C@H](N[*:1])C(=O)[*:2])cn1; Ala(pyrimidin-5-yl) = N[C@@H](Cc1cncnc1)C(=O)O; Phe(4-COOH) = N[C@@H](Cc1ccc(C(=O)O)cc1)C(=O)O; Phe(4-CH2NH2) = NCc1ccc(C[C@H](N)C(=O)O)cc1; h3Pal(5-CN) = N#Cc1cncc(CC[C@H](N)C(=O)O)c1; Pro(4R-NH2) = N[C@H]1CN[C@H](C(=O)O)C1; Ala(4-THP) = N[C@@H](CC1CCOCC1)C(=O)O; AEF = NCCOc1ccc(C[C@H](N)C(=O)O)cc1; hTyr = N[C@@H](CCc1ccc(O)cc1)C(=O)O; hCha = N[C@@H](CCC1CCCCC1)C(=O)O; 4Pal = N[C@@H](Cc1ccncc1)C(=O)O; Cha = N[C@@H](CC1CCCCC1)C(=O)O; dDab = NCC[C@@H](N)C(=O)O; dNMeA = CN[C@H](C)C(=O)O; Nva = CCC[C@H](N)C(=O)O; Dap = NC[C@H](N)C(=O)O

What follows are compounds tested against T1, Recombinant human IL-1β (Homo sapiens, UniProt P01584) (assay: IL-6 assay in MRC5 cells: inhibition of IL-1β induced IL-6 secretion (AlphaLISA)). Conditions: inhibition of IL-1β induced IL-6 secretion in MRC5 cells; IL-1β pre-incubated 1 hour with compound; read-out: MRC5 IC50.
T1 construct: purchased BioLegend 579404
Format: cell-based
Outline: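 IL-1β at 2×EC80 in seeding medium (EMEM, 0.025% BSA) preincubated 1 h at ambient temperature with compound, then 3000 MRC5 cells/well added and incubated overnight at 37 °C, 5% CO2. IL-6 in conditioned medium quantified by AlphaLISA; IC50 from 4-parameter logistic fit.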

T1 sequence (P01584 117-269): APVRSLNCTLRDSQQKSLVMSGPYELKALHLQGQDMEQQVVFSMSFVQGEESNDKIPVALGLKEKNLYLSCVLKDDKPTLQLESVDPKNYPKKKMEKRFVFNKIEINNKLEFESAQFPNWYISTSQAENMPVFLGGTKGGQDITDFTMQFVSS

| IC50 | SMILES |
| --- | --- |
| 0.118 nM | CC(=O)NCCOc1ccc(C[C@@H]2NC(=O)[C@H](CCc3ccc(O)cc3)NC(=O)[C@@H](C)NC(=O)[C@H](CC(C)C)NC(=O)[C@H](CCCCN)NC(=O)[C@H](Cc3ccc(-c4ccc(C(=O)O)cc4)cc3)NC(=O)CNC(=O)[C@@H](C)N(C)C(=O)[C@H](CC(=O)O)NC(=O)[C@H]([C@@H](C)c3c[nH]c4cccc(F)c34)NC(=O)[C@@H]3C[C@@H](N)CN3C(=O)CNC(=O)[C@H](Cc3ccc(C(=O)O)cc3)NC(=O)[C@H](Cc3c[nH]c4ccccc34)NC2=O)cn1 [Example 9] (cyclo([X12]W[Phe(4-COOH)]G[Pro(4R-NH2)][Trp(βS-Me,4-F)]D[dNMeA]G[Bip(4'-COOH)]KL[dA][hTyr])) |
| 0.0217 nM | CC(=O)N1CCN(c2ccc(C[C@@H]3NC(=O)[C@H](CCc4cncc(C#N)c4)NC(=O)[C@@H](C)NC(=O)[C@H](CC(C)C)NC(=O)[C@H](CCCCN)NC(=O)[C@H](Cc4ccc(-c5ccc(C(=O)O)cc5)cc4)NC(=O)CNC(=O)[C@@H](C)N(C)C(=O)[C@H](CC(=O)O)NC(=O)[C@H]([C@@H](C)c4cccc5ccccc45)NC(=O)[C@@H]4C[C@@H](N)CN4C(=O)CNC(=O)[C@H](Cc4ccc(C(=O)O)cc4)NC(=O)[C@H](Cc4c[nH]c5ccccc45)NC3=O)cn2)CC1 [Example 2] (cyclo([X1]W[Phe(4-COOH)]G[Pro(4R-NH2)][1Nal(3S-Me)]D[dNMeA]G[Bip(4'-COOH)]KL[dA][h3Pal(5-CN)])) |
| 0.627 nM | CC(C)C[C@@H]1NC(=O)[C@H](CCCCN)NC(=O)[C@H](Cc2ccc(-c3ccc(C(=O)O)cc3)cc2)NC(=O)CNC(=O)[C@@H](C)N(C)C(=O)[C@H](CC(=O)O)NC(=O)[C@H]([C@@H](C)c2c[nH]c3cccc(Cl)c23)NC(=O)[C@@H]2C[C@@H](N)CN2C(=O)CNC(=O)[C@H](Cc2ccc(C(=O)O)cc2)NC(=O)[C@H](Cc2c[nH]c3ccccc23)NC(=O)[C@H](Cc2ccc(-c3ccc(C(=O)O)cc3)cc2)NC(=O)[C@H](CCc2ccc(O)cc2)NC(=O)[C@@H](C)NC1=O [Example 42] (cyclo([Bip(4'-COOH)]W[Phe(4-COOH)]G[Pro(4R-NH2)][Trp(4-Cl)(βS-Me)]D[dNMeA]G[Bip(4'-COOH)]KL[dA][hTyr])) |
| 0.32 nM | C[C@@H]1C(=O)NCC(=O)N[C@@H](Cc2ccc(-c3ccc(C(=O)O)cc3)cc2)C(=O)N[C@@H](Cc2ccc(CN)cc2)C(=O)N[C@@H](CO)C(=O)N[C@H](C)C(=O)N[C@@H](CCc2ccc(O)cc2)C(=O)N[C@@H](Cc2ccc(-c3ccc(C(=O)O)cc3)cc2)C(=O)N[C@@H](Cc2c[nH]c3ccccc23)C(=O)N[C@@H](Cc2ccc(C(=O)O)cc2)C(=O)NCC(=O)N2C[C@H](N)C[C@H]2C(=O)N[C@@H]([C@@H](C)c2c[nH]c3cccc(Cl)c23)C(=O)N[C@@H](CC(=O)O)C(=O)N1C [Example 51] (cyclo([Bip(4'-COOH)]W[Phe(4-COOH)]G[Pro(4R-NH2)][Trp(4-Cl)(βS-Me)]D[dNMeA]G[Bip(4'-COOH)][Phe(4-CH2NH2)]S[dA][hTyr])) |
| 0.0918 nM | CC(=O)NCCOc1ccc(C[C@@H]2NC(=O)[C@H](CCc3cncc(C#N)c3)NC(=O)[C@@H](CCN)NC(=O)CNC(=O)[C@H](Cc3cncnc3)NC(=O)[C@H](Cc3ccc(-c4ccc(C(=O)O)cc4)cc3)NC(=O)CNC(=O)[C@@H](C)N(C)C(=O)[C@H](CC(=O)O)NC(=O)[C@H]([C@@H](C)c3cccc4ccccc34)NC(=O)[C@@H]3C[C@@H](N)CN3C(=O)CNC(=O)[C@H](Cc3ccc(C(=O)O)cc3)NC(=O)[C@H](Cc3c[nH]c4ccccc34)NC2=O)cc1 [Example 113] (cyclo([AEF](Ac)W[Phe(4-COOH)]G[Pro(4R-NH2)][1Nal(3S-Me)]D[dNMeA]G[Bip(4'-COOH)][Ala(pyrimidin-5-yl)]G[dDab][h3Pal(5-CN)])) |
| 0.0182 nM | C[C@@H]1C(=O)NCC(=O)N[C@@H](Cc2ccc(-c3ccc(C(=O)O)cc3)cc2)C(=O)N[C@@H](CCCCN)C(=O)N[C@@H](CC2CCOCC2)C(=O)N[C@H](C)C(=O)N[C@@H](CCc2cncc(C#N)c2)C(=O)N[C@@H](Cc2ccc(-c3ccc(C(=O)O)cc3)cc2)C(=O)N[C@@H](Cc2c[nH]c3ccccc23)C(=O)N[C@@H](Cc2ccc(C(=O)O)cc2)C(=O)NCC(=O)N2C[C@H](N)C[C@H]2C(=O)N[C@@H]([C@@H](C)c2c[nH]c3cccc(F)c23)C(=O)N[C@@H](CC(=O)O)C(=O)N1C [Example 64] (cyclo([Bip(4'-COOH)]W[Phe(4-COOH)]G[Pro(4R-NH2)][Trp(βS-Me,4-F)]D[dNMeA]G[Bip(4'-COOH)]K[Ala(4-THP)][dA][h3Pal(5-CN)])) |
| 0.0291 nM | C[C@@H]1C(=O)NCC(=O)N[C@@H](Cc2ccc(-c3ccc(C(=O)O)cc3)cc2)C(=O)N[C@@H](CC2CCOCC2)C(=O)N[C@@H](CN)C(=O)N[C@H](C)C(=O)N[C@@H](CCc2ccc(O)cc2)C(=O)N[C@@H](Cc2ccc(-c3ccc(C(=O)O)cc3)cc2)C(=O)N[C@@H](Cc2c[nH]c3ccccc23)C(=O)N[C@@H](Cc2ccc(C(=O)O)cc2)C(=O)NCC(=O)N2C[C@H](N)C[C@H]2C(=O)N[C@@H]([C@@H](C)c2cccc3ccccc23)C(=O)N[C@@H](CC(=O)O)C(=O)N1C [Example 24] (cyclo([Bip(4'-COOH)]W[Phe(4-COOH)]G[Pro(4R-NH2)][1Nal(3S-Me)]D[dNMeA]G[Bip(4'-COOH)][Ala(4-THP)][Dap][dA][hTyr])) |

Same assay, conditions: inhibition of IL-1β induced IL-6 secretion in MRC5 cells; read-out: MRC5 IC50

| IC50 | SMILES |
| --- | --- |
| 0.118 nM | CC(=O)NCCOc1ccc(C[C@@H]2NC(=O)[C@H](CCc3ccc(O)cc3)NC(=O)[C@@H](C)NC(=O)[C@H](CC(C)C)NC(=O)[C@H](CCCCN)NC(=O)[C@H](Cc3ccc(-c4ccc(C(=O)O)cc4)cc3)NC(=O)CNC(=O)[C@@H](C)N(C)C(=O)[C@H](CC(=O)O)NC(=O)[C@H]([C@@H](C)c3c[nH]c4cccc(F)c34)NC(=O)[C@@H]3C[C@@H](N)CN3C(=O)CNC(=O)[C@H](Cc3ccc(C(=O)O)cc3)NC(=O)[C@H](Cc3c[nH]c4ccccc34)NC2=O)cc1 [Example 159] (cyclo([AEF](Ac)W[Phe(4-COOH)]G[Pro(4R-NH2)][Trp(βS-Me,4-F)]D[dNMeA]G[Bip(4'-COOH)]KL[dA][hTyr])) |
| 0.019 nM | C[C@@H]1C(=O)NCC(=O)N[C@@H](Cc2ccc(-c3ccc(C(=O)O)cc3)cc2)C(=O)N[C@@H](CC2CCCCC2)C(=O)NCC(=O)N[C@H](CCN)C(=O)N[C@@H](CCC2CCCCC2)C(=O)N[C@@H](Cc2ccc(C34CC(C(=O)O)(C3)C4)cc2)C(=O)N[C@@H](Cc2c[nH]c3ccccc23)C(=O)N[C@@H](Cc2ccc(C(=O)O)cc2)C(=O)NCC(=O)N2C[C@H](N)C[C@H]2C(=O)N[C@@H]([C@@H](C)c2cccc3ccccc23)C(=O)N[C@@H](CC(=O)O)C(=O)N1C [Example 189] (cyclo([X6]W[Phe(4-COOH)]G[Pro(4R-NH2)][1Nal(3S-Me)]D[dNMeA]G[Bip(4'-COOH)][Cha]G[dDab][hCha])) |
| 0.112 nM | CC(=O)NCCOc1ccc(C[C@@H]2NC(=O)[C@H](CCc3ccc(O)cc3)NC(=O)[C@@H](CCCCN)NC(=O)[C@H](CC(C)C)NC(=O)[C@H](Cc3c[nH]c4ccccc34)NC(=O)[C@H](Cc3ccc(-c4ccc(C(=O)O)cc4)cc3)NC(=O)CNC(=O)[C@@H](C)N(C)C(=O)[C@H](CC(=O)O)NC(=O)[C@H]([C@@H](C)c3c[nH]c4cccc(F)c34)NC(=O)[C@@H]3C[C@@H](N)CN3C(=O)CNC(=O)[C@H](Cc3ccc(C(=O)O)cc3)NC(=O)[C@H](Cc3c[nH]c4ccccc34)NC2=O)cc1 [Example 169] (cyclo([AEF](Ac)W[Phe(4-COOH)]G[Pro(4R-NH2)][Trp(βS-Me,4-F)]D[dNMeA]G[Bip(4'-COOH)]WL[dK][hTyr])) |
| 0.0248 nM | CC(=O)NCCOc1ccc(C[C@@H]2NC(=O)[C@H](CCc3cncc(C#N)c3)NC(=O)[C@@H](CCN)NC(=O)CNC(=O)[C@H](Cc3c[nH]c4ccccc34)NC(=O)[C@H](Cc3ccc(-c4ccc(C(=O)O)cc4)cc3)NC(=O)CNC(=O)[C@@H](C)N(C)C(=O)[C@H](CC(=O)O)NC(=O)[C@H]([C@@H](C)c3cccc4ccccc34)NC(=O)[C@@H]3C[C@@H](N)CN3C(=O)CNC(=O)[C@H](Cc3ccc(C(=O)O)cc3)NC(=O)[C@H](Cc3c[nH]c4ccccc34)NC2=O)cc1 [Example 122] (cyclo([AEF](Ac)W[Phe(4-COOH)]G[Pro(4R-NH2)][1Nal(3S-Me)]D[dNMeA]G[Bip(4'-COOH)]WG[dDab][h3Pal(5-CN)])) |
| 0.403 nM | CCC[C@@H]1NC(=O)[C@H](Cc2ccncc2)NC(=O)[C@H](Cc2ccc(-c3ccc(C(=O)O)cc3)cc2)NC(=O)CNC(=O)[C@@H](C)N(C)C(=O)[C@H](CC(=O)O)NC(=O)[C@H]([C@@H](C)c2c[nH]c3cccc(F)c23)NC(=O)[C@@H]2C[C@@H](N)CN2C(=O)CNC(=O)[C@H](Cc2ccc(C(=O)O)cc2)NC(=O)[C@H](Cc2c[nH]c3ccccc23)NC(=O)[C@H](Cc2ccc(OCCNC(C)=O)cc2)NC(=O)[C@H](CCc2ccc(O)cc2)NC(=O)[C@@H](C)NC1=O [Example 157] (cyclo([AEF](Ac)W[Phe(4-COOH)]G[Pro(4R-NH2)][Trp(βS-Me,4-F)]D[dNMeA]G[Bip(4'-COOH)][4Pal][Nva][dA][hTyr])) |
| 0.0257 nM | CC(=O)NCCOc1ccc(C[C@@H]2NC(=O)[C@H](CCc3cncc(C#N)c3)NC(=O)[C@@H](C)NC(=O)[C@H](CC(C)C)NC(=O)[C@H](CCCCN)NC(=O)[C@H](Cc3ccc(-c4ccc(C(=O)O)cc4)cc3)NC(=O)CNC(=O)[C@@H](C)N(C)C(=O)[C@H](CC(=O)O)NC(=O)[C@H]([C@@H](C)c3c[nH]c4cccc(F)c34)NC(=O)[C@@H]3C[C@@H](N)CN3C(=O)CNC(=O)[C@H](Cc3ccc(C(=O)O)cc3)NC(=O)[C@H](Cc3c[nH]c4ccccc34)NC2=O)cc1 [Example 158] (cyclo([AEF](Ac)W[Phe(4-COOH)]G[Pro(4R-NH2)][Trp(βS-Me,4-F)]D[dNMeA]G[Bip(4'-COOH)]KL[dA][h3Pal(5-CN)])) |
